Measurements taken from article PMC4987650, “Structural Investigation of Park’s Nucleotide on Bacterial Translocase MraY: Discovery of Unexpected MraY Inhibitors” (Scientific Reports, 2016).
“Also recorded” adds a separate entry of the source. Like-named read-outs stand apart in the source and are kept apart here. Numbered stars: 1 amine (or outer) side, 2 acyl side, 3 side chain; on linkers, the order of the positions; unused ones are H or OH. Square brackets hold non-standard residues; d marks the D form. Peptide text beside a SMILES is read from it. * marks the point of attachment. UDPMurNAc = CC(=O)N[C@H]1[C@@H](OP(=O)(O)OP(=O)(O)OC[C@H]2O[C@@H](n3ccc(=O)[nH]c3=O)[C@H](O)[C@@H]2O)O[C@H](CO)[C@@H](O)[C@@H]1O[C@H](C)C(=O)*; d(γGlu) = O=C(O)[C@@H](CCC(=O)[*:2])N[*:1]; NBD = O=[N+]([O-])c1ccc(*)c2nonc12; GABA = NCCCC(=O)O

Tests used:
MraYBS [1] = target: T1, MraYBS (Bacillus subtilis, UniProt Q03521); test: HPLC-based MraY functional assay (substrate activity); format: biochemical; conditions: for recognized as a MraYBS substrate: analogue 10 μM, C55P 200 μM; for recognized as a MraYBS substrate / conversion %: MraYBS 10 μg/mL; for recognized as a MraYBS substrate / conversion % / substrate under extreme reaction conditions: 37 °C; for conversion %: lipid phosphates 200 μM, NBD-Park's nucleotide (6) 10 μM, 1 h, from consumption of 6, n = 3, average ± SD; for substrate under extreme reaction conditions: Park's nucleotides 10 μM, MraYBS 40 μg/mL, C55P 1 mM, 24 h
T1 construct: MBP; made in house
T1 sequence (Q03521 1-324): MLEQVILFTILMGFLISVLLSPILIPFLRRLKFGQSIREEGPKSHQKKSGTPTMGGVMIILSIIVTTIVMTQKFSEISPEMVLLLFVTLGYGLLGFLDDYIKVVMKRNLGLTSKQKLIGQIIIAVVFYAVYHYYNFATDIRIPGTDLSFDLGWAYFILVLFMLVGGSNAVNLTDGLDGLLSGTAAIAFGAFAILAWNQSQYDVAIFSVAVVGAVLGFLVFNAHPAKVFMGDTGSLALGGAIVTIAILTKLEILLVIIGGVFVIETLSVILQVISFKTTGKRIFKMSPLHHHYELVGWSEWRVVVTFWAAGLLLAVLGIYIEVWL
Procedure: The purified MraY from Bacillus subtilis was prepared as described in our previous reports. […] […] The reaction mixtures were added by uridine (0.01 mg/mL) as the internal standard and heated to 100 °C to stop the transferring reaction. The samples were analyzed by RP-C18 HPLC with gradient elution of 0.25 M NH4HCO3(aq)/15% MeOH in water (100:0 to 0:100) at a flow rate of 1 mL/min over 45 min, and the peaks of substrates were monitored at UV 260 nm. For 6 and 11–17, the reaction mixture containing MraYBS (10 μg/mL), C55P (200 μM), 6-(7-Nitro-2,1,3-benzoxadiazol-4-ylamino)hexanoic acid (5 μM, internal standard) in 10 μL reaction buffer (30 mM Tris, 10 mM MgCl2, 10 mM NaCl, 0.1 mM Tween-20, 2.5% DMSO, pH 8.0) were pre-incubated at 37 °C for 15 min. […] The reaction mixtures were heated to 100 °C to stop the transferring reaction, and samples were analyzed by an anion-exchange column (SAX1, Supelco Co., 5 μm, 4.6 × 250 mm) with a linear gradient elution of NH4OAc (20 mM to 1 M in MeOH) at a flow rate of 1.0 mL/min over 30 min. The fluorescent substrates were monitored with λex 466 nm/λem 535 nm by fluorescence detector.

MraYBS [2] = target: T1, MraYBS; test: Biolayer interferometry-based (BLI) binding assay; conditions: for binding affinity with MraYBS: concentrations up to 500 μM
Procedure: MraYBS binding was measured in a biolayer interferometry-based binding assay on Octet Red96® instrument (ForteBio, Inc.). The biotinylation of MraYBS was performed with using EZ-Link® Sulfo-NHS-LC-LC-Biotin Kit (Thermo Fisher Scientific, Inc.). In general, MraYBS (1.7 mg/mL) in 50 μL reaction buffer (0.01 M HEPES pH 7.4, 0.15 M NaCl, 0.005% v/v Surfactant P20), was added by the sulfo-NHS-LC-LC-biotin reagent (1 mM, 1 μL). After incubating for 30 minutes at room temperature, the biotinylated-MraYBS was purified by a Zeba^TM Spin Desalting Columns, 7K MWCO (Thermo Fisher Scientific, Inc.), and the buffer was changed to the binding buffer (30 mM Tris, 10 mM MgCl2, 10 mM NaCl, 0.1 mM Tween-20, pH 8.0) during the purification. Comparing to the non-biotinylated-MraYBS, the biotinylated-MraYBS remains 62% activity measured by the HPLC-based MraY functional assay in 1 h reaction. The biotinylated MraYBS was then immobilized to Super Streptavidin (SSA) Octet tips (ForteBio, Inc.) for reaching a fixed signal of 3 nm. Before the assay starting, the MraYBS-labeled SSA sensors were pre-soaked in binding buffer for 30 min. The association of Park’s analogues with MraYBS were measured by incubating MraYBS-labeled SSA sensors in binding buffer containing various concentrations of samples in Octet Red system. The dissociation was monitored by moving the ligand biosenors from the analyte solution to binding buffer. The dissociation constants (KD) were obtained by nonlinear regression analysis using the specific binding model with the GraphPad Prism program (GraphPad Software, San Diego, CA).

MraYBS [3] = target: T1, MraYBS; test: MraY fluorescence enhancement assay (kinetics, inhibition); format: biochemical; conditions: for Inhibition Mode: Lineweaver-Burk
Procedure: Determine kinetic parameters by MraY fluorescence enhancement assay. The fluorescence enhancement assay was performed in 384-well plate as described by Bugg et al. with slight modifications.5 The reaction mixture containing MraYBS (10 μg/mL), C55P (200 μM) in 30 μL reaction buffer (30 mM Tris, 10 mM MgCl2, 10 mM NaCl, 0.1 mM Tween-20, 2.5% DMSO, pH 8.0) were pre-incubated at 37 °C for 15 min. The reactions were initiated by the addition of various concentrations of NBD-Park’s nucleotide 6 (0 to 160 μM). For inhibition study, a various concentrations of inhibitors were added before the addition of substrate 6. The continuous fluorescence increase over 60 min was monitored with λex 466 nm/λem 535 nm by fluorescence microplate reader (SpectraMax M5, Molecular Devices, LLC) at 37 °C. Linear regressions of increased fluorescent units (FLU) versus time (min) were used to calculate the initial velocities for each reaction. The kinetic parameters values (Ki, KM, and Vmax) were obtained by nonlinear regression analysis using the […] equation with the GraphPad Prism program (GraphPad Software, San

CC(=O)N[C@H]1[C@@H](OP(=O)(O)OP(=O)(O)OC[C@H]2O[C@@H](n3ccc(=O)[nH]c3=O)[C@H](O)[C@@H]2O)O[C@H](CO)[C@@H](O)[C@@H]1O[C@H](C)C(=O)NCC(=O)N[C@H](CCC(=O)N[C@@H](CCCCNc1ccc([N+](=O)[O-])c2nonc12)C(=O)N[C@H](C)C(=O)N[C@H](C)C(=O)O)C(=O)O [Compound 15] (UDPMurNAc-G[d(γGlu)]K(NBD)[dA][dA]-OH)
relative activity compared to 6 (MraYBS [1]; after 1 h reaction): about 80%

CC(=O)N[C@H]1[C@@H](OP(=O)(O)OP(=O)(O)OC[C@H]2O[C@@H](n3ccc(=O)[nH]c3=O)[C@H](O)[C@@H]2O)O[C@H](CO)[C@@H](O)[C@@H]1O[C@H](C)C(=O)N[C@@H](C)C(=O)O [Compound 9]
recognized as a MraYBS substrate (MraYBS [1]): not substrates | binding affinity with MraYBS (MraYBS [2]): no proper binding affinity

CC(C)=CCC/C(C)=C/CC/C(C)=C/CC/C(C)=C/CC/C(C)=C/CC/C(C)=C/CC/C(C)=C/CO [Heptaprenol, reference compound]
conversion % (MraYBS [1]): 55 ± 3%

CC(C)=CCCC(C)=CCCC(C)=CCCC(C)=CCO [Tetraprenol, reference compound]
conversion % (MraYBS [1]): 16 ± 5%

CC(C)=CCC/C(C)=C/CC/C(C)=C/CC/C(C)=C/CC/C(C)=C/CC/C(C)=C/CC/C(C)=C/CC/C(C)=C/CC/C(C)=C/CO [Solanesol, reference compound]
conversion % (MraYBS [1]): 12 ± 2%

CC(=O)N[C@H]1[C@@H](OP(=O)(O)OP(=O)(O)OC[C@H]2O[C@@H](n3cc(N)c(=O)[nH]c3=O)[C@H](O)[C@@H]2O)O[C@H](CO)[C@@H](O)[C@@H]1O[C@H](C)C(=O)N[C@@H](C)C(=O)N[C@H](CCC(=O)N[C@@H](CCCCNc1ccc([N+](=O)[O-])c2nonc12)C(=O)N[C@H](C)C(=O)N[C@H](C)C(=O)O)C(=O)O [Compound 17]
substrate under extreme reaction conditions (MraYBS [1]): did not function as substrates; also recorded: not be a substrate

CC(C)=CCC/C(C)=C/CC/C(C)=C/CC/C(C)=C/CC/C(C)=C/CC/C(C)=C/CC/C(C)=C/CC/C(C)=C/CC/C(C)=C/CC/C(C)=C/CC/C(C)=C/CO [Undecaprenol, reference compound]
conversion % (MraYBS [1]): 96 ± 1%

CC(=O)N[C@H]1[C@@H](OP(=O)(O)OP(=O)(O)OC[C@H]2O[C@@H](n3ccc(=O)[nH]c3=O)[C@H](O)[C@@H]2O)O[C@H](CO)[C@H](O)[C@@H]1O[C@H](C)C(=O)N[C@@H](C)C(=O)N[C@H](CCC(=O)N[C@@H](CCCCNc1ccc([N+](=O)[O-])c2nonc12)C(=O)N[C@H](C)C(=O)N[C@H](C)C(=O)O)C(=O)O [Compound 11]
substrate under extreme reaction conditions (MraYBS [1]): did not function as substrates; also recorded: not be a substrate

CC(=O)Nc1cn([C@@H]2O[C@H](COP(=O)(O)OP(=O)(O)O[C@H]3O[C@H](CO)[C@@H](O)[C@H](O[C@H](C)C(=O)N[C@@H](C)C(=O)O)[C@H]3NC(C)=O)[C@@H](O)[C@H]2O)c(=O)[nH]c1=O [Compound 19]
Kd (MraYBS [2]): 281 ± 97 µM | Ki (MraYBS [3]): 764 ± 127 µM | Inhibition Mode (MraYBS [3]; 6 as substrate): Competitive

CC(C)=CCC/C(C)=C/CC/C(C)=C/CC/C(C)=C/CC/C(C)=C/CC/C(C)=C/CO [Hexaprenol, reference compound]
conversion % (MraYBS [1]): 27 ± 6%

CC(=O)N[C@H]1[C@@H](OP(=O)(O)OP(=O)(O)OC[C@H]2O[C@@H](n3ccc(=O)[nH]c3=O)[C@H](O)[C@@H]2O)O[C@H](CO)[C@@H](O)[C@@H]1O[C@H](C)C(=O)N[C@@H](C)C(=O)NCCCC(=O)N[C@@H](CCCCNc1ccc([N+](=O)[O-])c2nonc12)C(=O)N[C@H](C)C(=O)N[C@H](C)C(=O)O [Compound 16] (UDPMurNAc-A[GABA]K(NBD)[dA][dA]-OH)
relative activity compared to 6 (MraYBS [1]; after 1 h reaction): < 10% | binding affinity with MraYBS (MraYBS [2]): no proper binding affinity

CC(=O)N[C@H]1[C@@H](OP(=O)(O)OP(=O)(O)OC[C@H]2O[C@@H](n3ccc(=O)[nH]c3=O)[C@H](O)[C@@H]2O)O[C@H](CO)[C@@H](O)[C@@H]1O [Compound 10, UDP-GlcNAc, reference compound]
recognized as a MraYBS substrate (MraYBS [1]): not substrates

Tunicamycins [reference compound]
Kd (MraYBS [2]; BLI, without C55P, read-out: KD): 93 ± 16 µM | Ki (MraYBS [3]; 6 as substrate, C55P 200 μM, read-out: Ki): 9 ± 1 µM | Inhibition Mode (MraYBS [3]; 6 as substrate): Competitive

CC(=O)N[C@H]1[C@@H](OP(=O)(O)OP(=O)(O)OC[C@H]2O[C@@H](n3cc(N)c(=O)[nH]c3=O)[C@H](O)[C@@H]2O)O[C@H](CO)[C@@H](O)[C@@H]1O[C@H](C)C(=O)N[C@@H](C)C(=O)O [Compound 18]
inhibitory activity (MraYBS [3]; at 1 mM): no inhibition activity

CC(=O)N[C@H]1[C@@H](OP(=O)(O)OP(=O)(O)OC[C@H]2O[C@@H](n3ccc(=O)[nH]c3=O)[C@H](O)[C@@H]2O)O[C@H](CO)[C@@H](O)[C@@H]1O[C@H](C)C(=O)N[C@@H](C)C(=O)N[C@H](CCC(=O)N[C@@H](CCCCN)C(=O)O)C(=O)O [Compound 7]
activity reduced compared with 5 (MraYBS [1]; after 1 h reaction): 17%

CC(=O)N[C@H]1[C@@H](OP(=O)(O)OP(=O)(O)OC[C@H]2O[C@@H](n3ccc(=O)[nH]c3=O)[C@H](O)[C@@H]2O)O[C@H](CO)[C@@H](O)[C@@H]1O[C@H](C)C(=O)N[C@@H](C)C(=O)N[C@H](CCC(=O)N[C@@H](CCCCN)C(=O)N[C@H](C)C(=O)N[C@H](C)C(=O)O)C(=O)O [Compound 5, Park’s nucleotide]
substrate consumption (MraYBS [1]; C55P (200 μM) as polyprenyl phosphate substrate, substrate 10 μM, within 1 h (60 min)): completely consumed | Kd (MraYBS [2]): 120 µM

CC(=O)N[C@H]1[C@@H](OP(=O)(O)OP(=O)(O)OC[C@H]2O[C@@H](n3cc(NC(=O)Cc4ccc(C)cc4)c(=O)[nH]c3=O)[C@H](O)[C@@H]2O)O[C@H](CO)[C@H](O)[C@@H]1O[C@H](C)C(=O)N[C@@H](C)C(=O)O [Compound 21]
Kd (MraYBS [2]; BLI, without C55P): > 250 µM | binding interactions with MraYBS (MraYBS [2]; concentration up to 250 μM): no sufficient binding interactions | inhibition at 1000 µM (MraYBS [3]): 30%

CC(=O)N[C@H]1[C@@H](OP(=O)(O)OP(=O)(O)OC[C@H]2O[C@@H](n3ccc(=O)[nH]c3=O)[C@H](O)[C@@H]2O)O[C@H](CO)[C@@H](O)[C@@H]1O[C@H](C)C(=O)N[C@@H](C)C(=O)N[C@H](CCC(=O)O)C(=O)O [Compound 8]
substrate activity remained (MraYBS [1]; after 1 h reaction, compared with 5): 40%
